Experiments:
Assay in all cases: relative viability (nuclei count vs DMSO), 5 days (fraction); higher = more cells survive
COR-L 105 = system: COR-L 105
Summary of the method: (§1)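 Lung cancer cell lines were seeded in 1536-well plates and dosed by pin tool the next day, with either a single drug or a fixed anchor-drug dose combined with five library-drug doses (not always all listed) spaced in √10 steps. Five days later, one step fixed the cells and stained their nuclei (final 0.05% Triton X-100, 1% formaldehyde, 1 ug/ml Hoechst), and nuclei were counted on 4× images. Relative viability is the nuclei count in treated wells divided by the count in vehicle wells, and each value is the median of duplicate plates.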

COR-L23 = system: COR-L23
Summary of the method: as §1

HARA = system: HARA
Summary of the method: as §1

HCC-15 = system: HCC-15
Summary of the method: as §1

HOP-62 = system: HOP-62
Summary of the method: as §1

NCI-H1355 = system: NCI-H1355
Summary of the method: as §1

NCI-H1734 = system: NCI-H1734
Summary of the method: as §1

NCI-H1755 = system: NCI-H1755
Summary of the method: as §1

NCI-H1792 = system: NCI-H1792
Summary of the method: as §1

NCI-H1993 = system: NCI-H1993
Summary of the method: as §1

NCI-H2009 = system: NCI-H2009
Summary of the method: as §1

NCI-H2228 = system: NCI-H2228
Summary of the method: as §1

NCI-H2347 = system: NCI-H2347
Summary of the method: as §1

NCI-H647 = system: NCI-H647
Summary of the method: as §1

NCI-H838 = system: NCI-H838
Summary of the method: as §1

UMC-11 = system: UMC-11
Summary of the method: as §1

Compound: CC(=O)O[C@@]12CO[C@@H]1C[C@H](O)[C@@]1(C)C(=O)[C@H](O)C3=C(C)[C@@H](OC(=O)[C@H](O)[C@@H](NC(=O)OC(C)(C)C)c4ccccc4)C[C@@](O)([C@@H](OC(=O)c4ccccc4)[C@H]21)C3(C)C [Docetaxel] + CC(C)C[C@H](NC(=O)[C@H](Cc1ccccc1)NC(=O)c1cnccn1)B(O)O [Bortezomib] (partner 0.002 µM)
- relative viability (COR-L 105; first compound 0.0002 µM): 0.734
- relative viability (COR-L 105; first compound 0.000632 µM): 0.595
- relative viability (COR-L 105; first compound 0.002 µM): 0.423
- relative viability (COR-L 105; first compound 0.006325 µM): 0.304
- relative viability (COR-L 105; first compound 0.02 µM): 0.229
- relative viability (COR-L23; first compound 0.0002 µM): 0.885
- relative viability (COR-L23; first compound 0.000632 µM): 0.915
- relative viability (COR-L23; first compound 0.002 µM): 0.844
- relative viability (COR-L23; first compound 0.02 µM): 0.116
- relative viability (HARA; first compound 0.0002 µM): 1.04
- relative viability (HARA; first compound 0.000632 µM): 0.372
- relative viability (HARA; first compound 0.002 µM): 0.376
- relative viability (HARA; first compound 0.006325 µM): 0.118
- relative viability (HARA; first compound 0.02 µM): 0.0895
- relative viability (HCC-15; first compound 0.0002 µM): 0.807
- relative viability (HCC-15; first compound 0.000632 µM): 0.78
- relative viability (HCC-15; first compound 0.002 µM): 0.231
- relative viability (HCC-15; first compound 0.006325 µM): 0.216
- relative viability (HCC-15; first compound 0.02 µM): 0.157
- relative viability (HOP-62; first compound 0.0002 µM): 0.726
- relative viability (HOP-62; first compound 0.000632 µM): 0.828
- relative viability (HOP-62; first compound 0.02 µM): 0.128
- relative viability (NCI-H1355; first compound 0.0002 µM): 1.2
- relative viability (NCI-H1355; first compound 0.000632 µM): 1.14
- relative viability (NCI-H1355; first compound 0.002 µM): 0.673
- relative viability (NCI-H1355; first compound 0.006325 µM): 0.302
- relative viability (NCI-H1355; first compound 0.02 µM): 0.224
- relative viability (NCI-H1734; first compound 0.0002 µM): 0.865
- relative viability (NCI-H1734; first compound 0.000632 µM): 0.577
- relative viability (NCI-H1734; first compound 0.002 µM): 0.323
- relative viability (NCI-H1734; first compound 0.006325 µM): 0.325
- relative viability (NCI-H1734; first compound 0.02 µM): 0.222
- relative viability (NCI-H1755; first compound 0.0002 µM): 0.984
- relative viability (NCI-H1755; first compound 0.000632 µM): 0.743
- relative viability (NCI-H1755; first compound 0.002 µM): 0.45
- relative viability (NCI-H1755; first compound 0.006325 µM): 0.368
- relative viability (NCI-H1755; first compound 0.02 µM): 0.315
- relative viability (NCI-H1792; first compound 0.0002 µM): 0.951
- relative viability (NCI-H1792; first compound 0.000632 µM): 0.82
- relative viability (NCI-H1792; first compound 0.002 µM): 0.6
- relative viability (NCI-H1792; first compound 0.02 µM): 0.12
- relative viability (NCI-H1993; first compound 0.0002 µM): 0.961
- relative viability (NCI-H1993; first compound 0.000632 µM): 1.06
- relative viability (NCI-H1993; first compound 0.002 µM): 0.798
- relative viability (NCI-H1993; first compound 0.006325 µM): 0.608
- relative viability (NCI-H1993; first compound 0.02 µM): 0.399
- relative viability (NCI-H2009; first compound 0.0002 µM): 0.99
- relative viability (NCI-H2009; first compound 0.000632 µM): 1.01
- relative viability (NCI-H2009; first compound 0.002 µM): 0.914
- relative viability (NCI-H2009; first compound 0.006325 µM): 0.263
- relative viability (NCI-H2009; first compound 0.02 µM): 0.178
- relative viability (NCI-H2228; first compound 0.0002 µM): 0.617
- relative viability (NCI-H2228; first compound 0.000632 µM): 0.212
- relative viability (NCI-H2228; first compound 0.002 µM): 0.149
- relative viability (NCI-H2228; first compound 0.006325 µM): 0.243
- relative viability (NCI-H2228; first compound 0.02 µM): 0.152
- relative viability (NCI-H2347; first compound 0.0002 µM): 0.805
- relative viability (NCI-H2347; first compound 0.000632 µM): 0.832
- relative viability (NCI-H2347; first compound 0.002 µM): 0.326
- relative viability (NCI-H2347; first compound 0.006325 µM): 0.497
- relative viability (NCI-H2347; first compound 0.02 µM): 0.575
- relative viability (NCI-H647; first compound 0.0002 µM): 0.762
- relative viability (NCI-H647; first compound 0.000632 µM): 0.23
- relative viability (NCI-H647; first compound 0.002 µM): 0.113
- relative viability (NCI-H647; first compound 0.006325 µM): 0.123
- relative viability (NCI-H647; first compound 0.02 µM): 0.0811
- relative viability (NCI-H838; first compound 0.0002 µM): 0.795
- relative viability (NCI-H838; first compound 0.000632 µM): 0.522
- relative viability (NCI-H838; first compound 0.002 µM): 0.247
- relative viability (NCI-H838; first compound 0.006325 µM): 0.154
- relative viability (NCI-H838; first compound 0.02 µM): 0.0975
- relative viability (UMC-11; first compound 0.0002 µM): 0.747
- relative viability (UMC-11; first compound 0.000632 µM): 0.763
- relative viability (UMC-11; first compound 0.002 µM): 0.162
- relative viability (UMC-11; first compound 0.006325 µM): 0.197
- relative viability (UMC-11; first compound 0.02 µM): 0.128

From the supplement of paper PMC10307832
